Results on nine molecules are retold here after ChEMBL document CHEMBL1201862, “PubChem BioAssay data set” (2004).

What is called GI50 is the concentration that inhibits growth by half.

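Compound exposure: 48 hours, 5 concentrations, 96-well plates. GI50 is the concentration that inhibits growth by half.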 The source made the active and inactive calls. No stated cut-off is given here; in the data, active = GI50 up to about 1.1 µM and inactive = higher.

Test in all cases: DTP human tumour cell line panel, 48 h
The subject of assay [1] is ACHN.
Assay [2] relates to DLD-1.
Assay [3] has as its system DMS-114.
Assay [4] has as its system DMS-273.
In assay [5] the test system is HCT-116.
The test system of assay [6] is HOP-18.
Assay [7] relates to HOP-62.
The test system of assay [8] is HT-29.
In assay [9] the test system is KM12.
The subject of assay [10] is OVCAR-4.
Assay [11] has as its system RPMI-8226.
Assay [12] deals with SF-295.
The subject of assay [13] is SF-539.
The subject of assay [14] is SK-MEL-28.
The subject of assay [15] is SK-MEL-5.
Assay [16] relates to SW-620.
For assay [17], the system named is TK-10.
Assay [18] relates to XF498.
Assay [19] relates to SK-OV-3.
The test system of assay [20] is Malme-3M.

On to `CCCCCCCCCCCCCCCC(=O)OC1C(O)C(CO)OC(OC)C1NC(=O)N(CCCl)N=O` (stereo unspecified), for which the GI50 in assay [1] is 8.81 µM (inactive); in [2] it was 16.2 µM (inactive); in assay [3], 12.1 µM (inactive); in assay [4], 13.1 µM (inactive); in assay [5], 14.3 µM (inactive); in assay [6], 15.8 µM (inactive). Also, the GI50 in [7] was 15.4 µM (inactive); in assay [8], 12.8 µM (inactive); in [9] it was 16.5 µM (inactive); in assay [10], 20.6 µM (inactive); in assay [11], 21.1 µM (inactive); in assay [12], 10.6 µM (inactive). The GI50 in assay [13] is 1.08 µM (active); in [14] it was 14.2 µM (inactive); in assay [15], 13.2 µM (inactive); in assay [16] it was 10.9 µM (inactive); in assay [17] it was 15.5 µM (inactive); in [18] it was 14.6 µM (inactive).
For the molecule `NS(=O)(=O)C1CCCCC1C(=O)NNC(=O)C(=O)Nc1nnc(S)[nH]1` (stereo unspecified), the GI50 in assay [1], in assay [2], in assay [3], in [4], in assay [5] and in [7] was > 100 µM (inactive) each time. In addition, the GI50 in assay [8], in [9], in assay [10], in [11], in [12] and in [13] was > 100 µM (inactive) each time. For the same molecule, the GI50 in assay [14], in [15], in assay [19], in assay [16], in assay [17] and in [18] was > 100 µM (inactive) each time.
Regarding `COc1ccc(N2CN(C)CSC2=S)cc1`, the GI50 in assay [1] is > 100 µM (inactive); in [5], 71.3 µM (inactive); in assay [7] it was 25.9 µM (inactive); in assay [8], > 100 µM (inactive); in [9], > 100 µM (inactive); in assay [20], > 100 µM (inactive). Moreover, the GI50 was > 100 µM (inactive) in assay [10]; 32.3 µM (inactive) in assay [11]; 23.4 µM (inactive) in assay [12]; > 100 µM (inactive) in assay [13]; > 100 µM (inactive) in assay [14]; > 100 µM (inactive) in assay [15]. Besides, the GI50 in assay [19] was 27.1 µM (inactive); in assay [16] it was 43 µM (inactive); in assay [17] it was > 100 µM (inactive).
Take `CO/N=C1/c2sccc2[C@H](NC(=O)C(F)(F)F)[C@@H]1O`: the GI50 in [5], in [7], in [8], in [20], in assay [10] and in assay [12] was > 100 µM (inactive) each time. Besides, the GI50 in [13], in assay [14], in assay [15], in assay [19], in assay [16] and in [17] was > 100 µM (inactive) throughout.
Take `Cc1ccc2c(=O)c3ccccc3sc2c1`: the GI50 in assay [1] was > 100 µM (inactive); in [2], > 100 µM (inactive); in assay [4] it was > 100 µM (inactive); in assay [5] it was > 100 µM (inactive); in assay [6], 6.19 µM (inactive); in assay [7] it was > 100 µM (inactive). Moreover, the GI50 is 77.3 µM (inactive) in assay [8]; 53.7 µM (inactive) in assay [9]; > 100 µM (inactive) in assay [20]; > 100 µM (inactive) in assay [10]; > 100 µM (inactive) in assay [11]; > 100 µM (inactive) in [13]. Further, the GI50 in assay [14], in assay [15], in assay [19], in [16] and in [17] was > 100 µM (inactive) throughout.
In the case of `O=C(N/N=C\c1cccc2ccccc12)Nc1ccccc1`, the GI50 in [5], in assay [7], in assay [8], in assay [9], in assay [20] and in assay [10] was > 100 µM (inactive) in each case. Further, the GI50 in [11], in assay [12], in assay [14], in assay [15], in assay [19] and in assay [16] was > 100 µM (inactive) each time. Further, the GI50 in [17] was > 100 µM (inactive).
Turning to `O=C1CCC(c2ccc(Cl)cc2)=NN1c1nsc2ccccc12`, the GI50 in assay [1] is 34.1 µM (inactive); in assay [3] it was 27.9 µM (inactive); in assay [4], 25.6 µM (inactive); in assay [5], 19.7 µM (inactive); in [6] it was 18.7 µM (inactive); in assay [7], 39.2 µM (inactive). The GI50 is 30.1 µM (inactive) in [8]; 29.2 µM (inactive) in assay [9]; 36.1 µM (inactive) in assay [10]; 19.3 µM (inactive) in [11]; 48.4 µM (inactive) in assay [13]; 31.6 µM (inactive) in assay [14]. Also, the GI50 in assay [15] is > 10 µM (inactive); in assay [16], 58.1 µM (inactive); in assay [17] it was 46.3 µM (inactive).
On to `CCCCCCc1ccc(O)cc1O` [HEXYLRESORCINOL], for which the GI50 is 72.6 µM (inactive) in [2]; > 72.6 µM (inactive) in assay [4]; 53.5 µM (inactive) in assay [5]; 28.2 µM (inactive) in [6]; 57.8 µM (inactive) in assay [7]; > 100 µM (inactive) in assay [8]. Further, the GI50 in [9] is 62.2 µM (inactive); in assay [20], 48 µM (inactive); in [10], 48.5 µM (inactive); in assay [11], 32.1 µM (inactive); in assay [12], 46.8 µM (inactive); in [13], > 80.7 µM (inactive). Moreover, the GI50 in assay [14] is > 71.9 µM (inactive); in assay [15], 31.8 µM (inactive); in assay [19], > 100 µM (inactive); in [16], > 100 µM (inactive); in assay [18] it was > 65.3 µM (inactive).
`CC(=O)CC(=O)CCC(=O)O` [SUCCINYLACETONE]: the GI50 in assay [1], in assay [2], in assay [3], in assay [4], in assay [5] and in [6] was > 100 µM (inactive) throughout. Moreover, the GI50 in assay [8] was > 100 µM (inactive); in assay [9], 47.4 µM (inactive); in assay [20], > 100 µM (inactive); in assay [12], > 100 µM (inactive); in assay [13] it was > 100 µM (inactive); in assay [14], > 100 µM (inactive). Besides, the GI50 in assay [19], in assay [16], in assay [17] and in assay [18] was > 100 µM (inactive) throughout.
